Measured values as given in paper PMC11624893 (Journal of the American Chemical Society, 2024).
Positions of bridges follow the written chain, without caps; N, C: chain ends. Non-standard residues stand in square brackets, D forms with d. Residues, ends and D or L forms follow the SMILES beside them. *: point of attachment. X1 = CC[C@H](C)CCCCC(=O)*; Dab = NCC[C@H](N)C(=O)O

Assays:
[1] = system: E. coli 25922; experiment: Minimum inhibitory concentration; type: cell-based; details: for Minimum Inhibitory Concentration (MIC): E. coli 25922, Gram-negative
[2] = system: A. baumannii 19606; experiment: Minimum inhibitory concentration; type: cell-based; details: for Minimum Inhibitory Concentration (MIC): A. baumannii 19606, Gram-negative
[3] = system: M. smegmatis 700084; experiment: Ethidium bromide; type: cell-based; details: M. smegmatis 700084, 8 μM (1x MIC)
[4] = system: E. faecium 51559; details: E. faecium 51559, vanA-type resistance reference strain (VRE)
[5] = system: biofilm-associated M. smegmatis 700084; experiment: Minimum biofilm eradication concentration; type: cell-based
[6] = system: S. aureus 29213; experiment: Minimum inhibitory concentration; type: cell-based; details: for Minimum Inhibitory Concentration (MIC): S. aureus 29213, Gram-positive, actively growing
[7] = system: biofilm-associated E. coli 25922; experiment: Minimum biofilm eradication concentration; type: cell-based
[8] = system: E. coli 25922; experiment: Outer membrane permeability, 1-N-phenylnapthylamine; type: cell-based; details: E. coli 25922, 5e at 80 μM (10x MIC)
[9] = system: P. aeruginosa PA14; experiment: Minimum inhibitory concentration; type: cell-based; details: for Minimum Inhibitory Concentration (MIC): P. aeruginosa PA14, Gram-negative
[10] = system: M. smegmatis 700084; experiment: Minimum inhibitory concentration; type: cell-based; details: M. smegmatis 700084, mycobacteria
[11] = system: biofilm-associated S. aureus 29213; experiment: Minimum biofilm eradication concentration; type: cell-based
[12] = system: S. aureus; experiment: Peptidoglycan precursor accumulation, LC-MS; type: cell-based; details: treatment, cell lysis
[13] = system: M. smegmatis; experiment: Peptidoglycan precursor accumulation, LC-MS; type: cell-based; details: treatment, cell lysis
[14] = system: S. aureus 29213; experiment: Membrane permeability, propidium iodide; type: cell-based; details: S. aureus 29213, exponential-phase cells in HEPES-Glucose buffer
[15] = system: K. pneumoniae 700603; details: K. pneumoniae 700603, Gram-negative
[16] = system: panel containing Gram-positive, Gram-negative, and mycobacterial microorganisms; experiment: MIC assay, statements over the whole panel; type: cell-based; details: Gram-negative organisms (E. coli, A. baumannii, K. pneumoniae, P. aeruginosa)
[17] = system: M. abscessus 19977; experiment: Minimum inhibitory concentration; type: cell-based; details: M. abscessus 19977, mycobacteria
[18] = system: M. avium 700898; details: M. avium 700898, mycobacteria
[19] = system: K. pneumoniae 700603; experiment: microbe, parasite or virus in culture; details: Klebsiella pneumoniae, 700603, read-out: Minimum Inhibitory Concentration (MIC)
[20] = system: E. faecium 51559; experiment: microbe, parasite or virus in culture; details: Enterococcus faecium, VRE, read-out: Minimum Inhibitory Concentration (MIC)
[21] = system: M. avium 700898; experiment: microbe, parasite or virus in culture; details: Mycobacterium avium, 700898, read-out: Minimum Inhibitory Concentration (MIC)
[22] = pre-formed biofilms of E. coli 25922, as given in the text
[23] = biofilm-associated S. aureus 29213, as given in the text
[24] = pre-formed biofilm of E. coli 25922, Table 2

Row | Compound | Minimum Inhibitory Concentration (MIC) [1] [µM] | Minimum Inhibitory Concentration (MIC) [2] [µM] | Minimum Inhibitory Concentration (MIC) [4] [µM] | Minimum Inhibitory Concentration (MIC) [6] [µM] | minimum biofilm eradication concentration (MBEC) [7, 22] | Minimum Inhibitory Concentration (MIC) [9] [µM] | Minimum Inhibitory Concentration (MIC) [10] [µM] | minimum biofilm eradication concentration (MBEC) [11, 23] [µM] | Minimum Inhibitory Concentration (MIC) [15] [µM] | Minimum Inhibitory Concentration (MIC) [17] [µM] | Minimum Inhibitory Concentration (MIC) [18] [µM] | minimum biofilm eradication concentration (MBEC) [7, 24] [µM] | other results
1 | CN[C@H](CC(C)C)C(=O)N[C@H]1C(=O)N[C@@H](CC(N)=O)C(=O)N[C@H]2C(=O)N[C@H]3C(=O)N[C@H](C(=O)N[C@H](C(=O)O)c4cc(O)cc(O)c4-c4cc3ccc4O)[C@H](O)c3ccc(c(Cl)c3)Oc3cc2cc(c3O[C@@H]2O[C@H](CO)[C@@H](O)[C@H](O)[C@H]2O[C@H]2C[C@](C)(N)[C@H](O)[C@H](C)O2)Oc2ccc(cc2Cl)[C@H]1O [Vancomycin, vancomycin] | 128 to 256 | 64 to 128 | 512 | 1 | 256 µM | 256 to 512 | 8 | > 512 | 256 to 512 | 32 to 64 | 16 |  | EtBr fluorescence [3]: did not influence EtBr fluorescence; minimum biofilm eradication concentration (MBEC) ([5]; pre-formed biofilm of M. smegmatis 700084, Table 2): 64 µM; NPN fluorescence (outer membrane destabilization) [8]: no increase in fluorescence; accumulation of peptidoglycan precursor (UDP-MurNAc pentapeptide) [12]: accumulation of the UDP-MurNAc pentapeptide; accumulation of peptidoglycan precursor (UDP-MurNGlyc pentapeptide) [13]: related UDP-MurNGlyc pentapeptide in M. smegmatis; PI fluorescence (membrane permeabilization) [14]: no increase in fluorescence; typical MIC against Gram-negative organisms [16]: ≥ 128 µM
2 | CN[C@H](CC(C)C)C(=O)N[C@H]1C(=O)N[C@@H](CC(N)=O)C(=O)N[C@H]2C(=O)N[C@H]3C(=O)N[C@H](C(=O)N[C@H](C(=O)O)c4cc(O)cc(O)c4-c4cc3ccc4O)[C@H](O[C@H]3C[C@](C)(N)[C@@H](O)[C@H](C)O3)c3ccc(c(Cl)c3)Oc3cc2cc(c3O[C@@H]2O[C@H](CO)[C@@H](O)[C@H](O)[C@H]2O[C@H]2C[C@](C)(NCc3ccc(-c4ccc(Cl)cc4)cc3)[C@@H](O)[C@H](C)O2)Oc2ccc(cc2Cl)[C@H]1O [Oritavancin, oritavancin] | >512 | 512 | 2 | 1 | no activity | >512 | 32 | 2 to 4 | >512 | 128 | 128 | >128 | minimum biofilm eradication concentration (MBEC) ([5]; pre-formed biofilms of M. smegmatis 700084, as given in the text): > 256 µM; minimum biofilm eradication concentration (MBEC) ([11]; pre-formed biofilm of S. aureus 29213, Table 2): 2 to 4 µM
3 | CO[C@H]1/C=C/O[C@@]2(C)Oc3c(C)c(O)c4c(O)c(c(/C=N/N5CCN(C)CC5)c(O)c4c3C2=O)NC(=O)/C(C)=C\C=C\[C@H](C)[C@H](O)[C@@H](C)[C@@H](O)[C@@H](C)[C@H](OC(C)=O)[C@@H]1C [Rifampicin, rifampicin] |  |  |  |  |  |  |  | 16 to 32 |  |  |  |  | 
4 | CN(C)C(=N)N=C(N)N [Metformin, metformin] |  |  |  |  |  |  |  |  |  |  |  |  | MIC ([1]; Escherichia coli, 25922, read-out: Minimum Inhibitory Concentration (MIC)): > 512 µM; MIC ([2]; Acinetobacter baumannii, 19606, read-out: Minimum Inhibitory Concentration (MIC)): > 512 µM; MIC [19]: > 512 µM; MIC [20]: > 512 µM; MIC [21]: > 512 µM; MIC ([6]; Staphylococcus aureus, 29213, read-out: Minimum Inhibitory Concentration (MIC)): > 512 µM; MIC ([9]; Pseudomonas aeruginosa, PA14, read-out: Minimum Inhibitory Concentration (MIC)): > 512 µM
5 | Gentamycin |  |  |  |  |  |  |  |  |  |  |  | 8 | 
6 | CC[C@H](C)CCCCC(=O)N[C@@H](CCN)C(=O)N[C@H](C(=O)N[C@@H](CCN)C(=O)N[C@H]1CCNC(=O)[C@H]([C@@H](C)O)NC(=O)[C@H](CCN)NC(=O)[C@H](CCN)NC(=O)[C@H](CC(C)C)NC(=O)[C@@H](Cc2ccccc2)NC(=O)[C@H](CCN)NC1=O)[C@@H](C)O [Polymyxin B, polymyxin B] (X1-[Dab]T[Dab][Dab][Dab][dF]L[Dab][Dab]T; lactam 4-C (inferred); N-terminus assumed) |  |  |  |  | 16 to 32 µM |  |  |  |  |  |  | 16 to 32 | 
